The text below walks through data of US11066396B2 (priority 2016, dated 2021).

For orientation: pIC50 means −log10 of the IC50, conventionally taken in molar units.

pIC50: −log10 of the molar value.

One assay has as its target HDAC1 (Homo sapiens (Human), UniProt Q13547). The conditions noted are these: read-out: HDAC1 IC50.
For the next assay, the target named is HDAC8 (Homo sapiens (Human), UniProt Q9BY41). Conditions: read-out: HDAC8 IC50.
HDAC8, sequence (Q9BY41 whole entry): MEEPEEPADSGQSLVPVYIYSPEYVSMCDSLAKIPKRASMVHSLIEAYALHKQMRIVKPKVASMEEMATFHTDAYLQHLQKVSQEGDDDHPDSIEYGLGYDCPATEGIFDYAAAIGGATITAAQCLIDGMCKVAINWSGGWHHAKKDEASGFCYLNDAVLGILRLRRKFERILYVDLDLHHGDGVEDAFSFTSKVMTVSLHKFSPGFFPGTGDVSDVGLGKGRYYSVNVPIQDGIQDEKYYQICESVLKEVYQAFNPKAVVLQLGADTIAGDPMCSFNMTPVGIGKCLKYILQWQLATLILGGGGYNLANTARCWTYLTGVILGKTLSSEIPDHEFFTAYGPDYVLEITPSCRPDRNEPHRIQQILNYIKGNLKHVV

HDAC1, sequence (Q13547 whole entry): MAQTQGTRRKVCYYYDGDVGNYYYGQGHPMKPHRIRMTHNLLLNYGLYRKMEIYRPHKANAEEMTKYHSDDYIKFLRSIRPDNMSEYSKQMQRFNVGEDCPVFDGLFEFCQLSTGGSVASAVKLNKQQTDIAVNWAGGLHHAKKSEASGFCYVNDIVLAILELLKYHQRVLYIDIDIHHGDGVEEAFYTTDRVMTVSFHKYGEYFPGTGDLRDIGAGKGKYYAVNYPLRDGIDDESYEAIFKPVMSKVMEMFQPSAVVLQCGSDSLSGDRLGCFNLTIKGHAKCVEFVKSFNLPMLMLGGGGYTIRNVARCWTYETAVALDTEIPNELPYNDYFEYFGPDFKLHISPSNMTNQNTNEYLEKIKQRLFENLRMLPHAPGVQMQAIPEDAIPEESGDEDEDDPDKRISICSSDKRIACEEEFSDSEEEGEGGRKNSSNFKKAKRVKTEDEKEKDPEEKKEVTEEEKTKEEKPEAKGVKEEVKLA

For `O=C1C(C2CCOCC2)NC[C@@H](c2cc(F)cc(F)c2)N1c1ccc(-c2noc(C(F)(F)F)n2)cn1` (stereo partly drawn) [Example 38, (6R)-6-(3,5-difluorophenyl)-3-(tetrahydro-2H-pyran-4-yl)-1-(5-(5-(trifluoromethyl)-1,2,4-oxadiazol-3-yl)pyridin-2-yl)piperazin-2-one], the pIC50 is 5.37 on HDAC1 and 4.80 on HDAC8.

For the compound `Cc1noc([C@@H]2COCC(=O)N2c2ccc(-c3noc(C(F)(F)F)n3)cc2)n1` [Example 47, (S)-5-(3-methyl-1,2,4-oxadiazol-5-yl)-4-(4-(5-(trifluoromethyl)-1,2,4-oxadiazol-3-yl)phenyl)morpholin-3-one], the pIC50 was 5.82 on HDAC1 and 5.52 on HDAC8.

On to `CC(C)c1ncc(C(=O)N(Cc2ccc(-c3noc(C(F)(F)F)n3)cn2)c2cccc(F)c2)cn1` [Example 53, N-(3-fluorophenyl)-2-isopropyl-N-((5-(5-(trifluoromethyl)-1,2,4-oxadiazol-3-yl)pyridin-2-yl)methyl)pyrimidine-5-carboxamide], for which the pIC50 at HDAC1 was 6.77; at HDAC8, 5.74.

As to `Cc1nccnc1C(=O)N(Cc1ccc(-c2noc(C(F)(F)F)n2)cn1)c1cccc(F)c1` [Example 56, N-(3-fluorophenyl)-3-methyl-N-((5-(5-(trifluoromethyl)-1,2,4-oxadiazol-3-yl)pyridin-2-yl)methyl)pyrazine-2-carboxamide], the pIC50 was 6.60 on HDAC1 and 5.51 on HDAC8.

`Cc1cc(CC(=O)N(Cc2ccc(-c3noc(C(F)(F)F)n3)cn2)c2cccc(F)c2)on1` [Example 59, N-(3-fluorophenyl)-2-(3-methylisoxazol-5-yl)-N-((5-(5-(trifluoromethyl)-1,2,4-oxadiazol-3-yl)pyridin-2-yl)methyl)acetamide]: the negative logarithm of the IC50 (pIC50) at HDAC1 is 6.68; on HDAC8 it was 5.82.

With `Cc1nonc1CC(=O)N(Cc1ccc(-c2noc(C(F)(F)F)n2)cn1)c1cccc(F)c1` [Example 62, N-(3-fluorophenyl)-2-(4-methyl-1,2,5-oxadiazol-3-yl)-N-((5-(5-(trifluoromethyl)-1,2,4-oxadiazol-3-yl)pyridin-2-yl)methyl)acetamide], the pIC50 on HDAC1 was 6.32; at HDAC8, 5.46.

Take `O=C(N(Cc1ccc(-c2noc(C(F)(F)F)n2)cn1)c1cccc(F)c1)C1(CN2CCOCC2)CC1` [Example 65, N-(3-fluorophenyl)-1-(morpholinomethyl)-N-((5-(5-(trifluoromethyl)-1,2,4-oxadiazol-3-yl)pyridin-2-yl)methyl)cyclopropane-1-carboxamide]: the pIC50 was 6.62 at HDAC1 and 5.52 on HDAC8.

As for `CC(=O)N1CCN(CC(=O)N(Cc2ccc(-c3noc(C(F)(F)F)n3)cc2)c2cccc(C(F)(F)F)c2)CC1` [Example 69, 2-(4-acetylpiperazin-1-yl)-N-(4-(5-(trifluoromethyl)-1,2,4-oxadiazol-3-yl)benzyl)-N-(3-(trifluoromethyl)phenyl)acetamide], the pIC50 is 5.89 at HDAC1 and 5.59 on HDAC8.

Take `O=C(Cn1ncccc1=O)N(Cc1ccc(-c2noc(C(F)(F)F)n2)cc1)c1cccc(C(F)(F)F)c1` [Example 70, 2-(6-oxopyridazin-1(6H)-yl)-N-(4-(5-(trifluoromethyl)-1,2,4-oxadiazol-3-yl)benzyl)-N-(3-(trifluoromethyl)phenyl)acetamide]: the values for the pIC50 at HDAC1 and at HDAC8 were 6.02 and 5.66, respectively.

With `O=C(c1cncnc1)N(Cc1ccc(-c2noc(C(F)(F)F)n2)cc1)c1cccc(C(F)(F)F)c1` [Example 71, N-(4-(5-(trifluoromethyl)-1,2,4-oxadiazol-3-yl)benzyl)-N-(3-(trifluoromethyl)phenyl)pyrimidine-5-carboxamide], the pIC50 on HDAC1 is 6.17; on HDAC8, 5.55.

As for `O=C(CCCn1cncn1)N(Cc1ccc(-c2noc(C(F)(F)F)n2)cc1)c1cccc(C(F)(F)F)c1` [Example 72, 4-(1H-1,2,4-triazol-1-yl)-N-(4-(5-(trifluoromethyl)-1,2,4-oxadiazol-3-yl)benzyl)-N-(3-(trifluoromethyl)phenyl)butanamide], the pIC50 at HDAC1 was 5.72; on HDAC8, 5.70.
